Measured values reported in ChEMBL document CHEMBL1201862, “PubChem BioAssay data set” (2004).
Calls of active or inactive are those of the source.

Columns and labels:
[1] = target: T1, Sentrin-specific protease 1 (Homo sapiens, UniProt Q9P0U3); experiment: Dose response confirmation of small molecule inhibitors of the catalytic domain of the SUMO protease, SENP1 in a FRET assay.; format: functional; details: read-out: IC50_Mean
[2] = target: T1, Sentrin-specific protease 1; experiment: potency of human SENP1 inhibitors, dose response, biochemical, kinetic FRET (AID 651697); format: functional; details: read-out: IC50_Mean
[3] = target: Melanocortin receptor 4 (Homo sapiens, UniProt P32245); format: functional, cell-based;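 note: Cell-based assay with luminescence read-out, confirmatory dose-response testing for agonist activity of biased ligands at MC4R; human U2OS cells with tagged receptor and beta-arrestin; potency of agonists that increase receptor coupling to beta-arrestin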
[4] = target: Cytochrome P450 3A4 (Homo sapiens, UniProt P08684);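 note: CYP3A4 tested as one member of a cytochrome P450 panel screen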
[5] = target: Cytochrome P450 2C9 (Homo sapiens, UniProt P11712)
[6] = target: Photoreceptor-specific nuclear receptor (Homo sapiens, UniProt Q9Y5X4); format: functional, cell-based;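 note: CHO-S cells with Gal4-NCOR and VP16-NR2E3 two-hybrid luciferase reporter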
[7] = target: Cytochrome P450 2C19 (Homo sapiens, UniProt P33261); experiment: Cytochrome panel assay with activity outcomes. Panel member name: p450-cyp2c19 Compounds with AC50 equal or less than 10 uM are considered active; format: functional; details: read-out: AC50
[8] = target: T2, Small ubiquitin-related modifier 1 (Homo sapiens, UniProt P63165); experiment: inhibitors of SUMO1 partner interactions, dose response, biochemical, FRET (AID 624383); format: functional; details: read-out: IC50_Mean
[9] = target: Tyrosine-protein phosphatase non-receptor type 11 (Homo sapiens, UniProt Q06124); experiment: SHP2 phosphatase inhibition, dose response, selectivity assay for STEP inhibitor project, biochemical (AID 602367); format: functional; details: read-out: IC50_Mean
[10] = target: T3, Carboxy-terminal domain RNA polymerase II polypeptide A small phosphatase 1 (Homo sapiens, UniProt Q9GZU7); experiment: inhibitors of CTDSP1, concentration-response testing, biochemical assay, absorbance-based, actives from ultra-high-throughput screening (AID 540297); format: functional
T3 sequence (Q9GZU7 whole entry): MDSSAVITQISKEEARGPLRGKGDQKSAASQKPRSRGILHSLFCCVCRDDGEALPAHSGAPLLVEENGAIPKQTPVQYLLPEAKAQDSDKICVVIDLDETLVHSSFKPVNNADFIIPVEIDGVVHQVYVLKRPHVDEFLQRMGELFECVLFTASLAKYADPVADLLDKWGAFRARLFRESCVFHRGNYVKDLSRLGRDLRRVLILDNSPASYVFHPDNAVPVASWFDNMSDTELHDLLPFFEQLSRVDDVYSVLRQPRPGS

[11] = HEp-2 cell cytotoxicity, dose response, cytotoxicity control for RSV inhibitor project, HTS (AID 2410); format: functional; details: human respiratory syncytial virus
[12] = target: T2, Small ubiquitin-related modifier 1; experiment: inhibitors of SUMO1 peptide binding, dose response, biochemical, fluorescence polarization, uHTS hits (AID 624382); format: functional; details: read-out: IC50_Mean
[13] = target: Tyrosine-protein phosphatase non-receptor type 5 (Homo sapiens, UniProt P54829); experiment: STEP phosphatase inhibitors, confirmation, biochemical, fluorescence intensity, uHTS hits (AID 602372); format: functional; details: read-out: IC50_Mean
[14] = target: Dual specificity protein phosphatase 3 (Homo sapiens, UniProt P51452); experiment: VHR phosphatase inhibition, dose response, selectivity assay for STEP inhibitor project, biochemical (AID 602374); format: functional; details: read-out: IC50_Mean
[15] = target: DNA repair and recombination protein RAD54-like (Homo sapiens, UniProt Q92698); experiment: inhibitors of human RAD54 branch migration, confirmation, biochemical, fluorescence, cherry-picked samples, dose series (AID 651657); format: functional
[16] = target: T4, Beta-lactamase (Pseudomonas aeruginosa, UniProt Q79MP6); experiment: […] counterscreen for selective VIM-2 inhibitors: dose response biochemical high throughput screening assay to identify inhibitors of IMP-1 metallo-beta-lactamase.
[17] = target: T5, Beta Lactamase (Pseudomonas aeruginosa, UniProt Q932Y6); experiment: VIM-2 inhibitor FRET-based artefact check, dose response, artefact control for selective VIM-2 inhibitor project, biochemical, FRET readout, CCF2 substrate (AID 1926)
[18] = target: T5, Beta Lactamase; experiment: VIM-2 metallo-beta-lactamase inhibitor potency, dose response, biochemical, epi-absorbance readout, selective inhibitors (AID 1919)
[19] = target: Beta-lactamase (Salmonella choleraesuis (strain SC-B67), UniProt Q5J463); experiment: Epi-absorbance-based counterscreen for selective VIM-2 inhibitors: dose response biochemical high throughput screening assay to identify inhibitors of TEM-1 serine-beta-lactamase.
[20] = target: T4, Beta-lactamase; experiment: IMP-1 metallo-beta-lactamase inhibitors, dose response, selectivity assay for VIM-2 inhibitor project, biochemical, epi-absorbance (AID 1920)
[21] = C. albicans growth with fluconazole, confirmation, fluorescence, retest (AID 2467); format: functional, cell-based
[22] = target: T6, High affinity choline transporter 1 (Homo sapiens, UniProt Q9GZV3); experiment: CHT inhibitors, dose response, cell-based, 5-point CRC, membrane potential dye (AID 504840); format: functional
T6 sequence (Q9GZV3 whole entry): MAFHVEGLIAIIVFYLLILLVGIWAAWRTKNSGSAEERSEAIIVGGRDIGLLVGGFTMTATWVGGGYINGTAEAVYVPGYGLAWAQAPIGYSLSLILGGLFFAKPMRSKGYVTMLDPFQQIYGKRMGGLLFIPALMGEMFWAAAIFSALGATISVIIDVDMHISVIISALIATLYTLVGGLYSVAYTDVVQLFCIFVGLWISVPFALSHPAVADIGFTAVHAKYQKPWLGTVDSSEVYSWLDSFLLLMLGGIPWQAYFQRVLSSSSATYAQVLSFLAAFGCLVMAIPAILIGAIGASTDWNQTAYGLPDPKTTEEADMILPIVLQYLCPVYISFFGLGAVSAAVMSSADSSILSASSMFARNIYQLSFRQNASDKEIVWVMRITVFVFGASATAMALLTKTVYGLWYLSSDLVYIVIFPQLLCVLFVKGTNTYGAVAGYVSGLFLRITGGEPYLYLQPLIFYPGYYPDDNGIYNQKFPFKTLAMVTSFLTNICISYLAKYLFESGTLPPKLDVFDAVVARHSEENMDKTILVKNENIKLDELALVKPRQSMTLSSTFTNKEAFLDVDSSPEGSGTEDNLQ

[23] = test system: Streptococcus; experiment: Group A Streptococcus viability loss, dose response, counter-screen for streptokinase expression inhibitor project, luminescence, BacTiterGlo (AID 1915); format: functional, organism-based;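 note: potency for reduction of bacterial viability or growth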
[24] = NIH-3T3 fibroblast cytotoxicity, dose response, cytotoxicity control, cell-based, fluorescence, Alamar Blue, secondary assay (AID 2327); format: functional;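 note: NIH-3T3 mouse fibroblasts cultured with fluconazole at 8 µg/mL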
[25] = target: T6, High affinity choline transporter 1; experiment: CHT inhibitors, dose response, cell-based, 10-point CRC, membrane potential dye (AID 588401); format: functional;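 note: membrane potential dye fluorescence of choline-evoked depolarization via CHT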
[26] = target: T7, Polyadenylate-binding protein 1 (Homo sapiens, UniProt P11940); experiment: PABP1 MLLE–PAM2 interaction inhibitors, dose response, miRNA deadenylation inhibitor project, biochemical, fluorescence polarization, Cy5-PAM2 peptide, secondary (AID 602260); format: functional; details: read-out: IC50_Mean
[27] = target: T8, Streptokinase A (Streptococcus pyogenes serotype M1, UniProt P10520); experiment: S. pyogenes streptokinase expression inhibitors, potency, dose response, plasminogen activation absorbance, OD405 (AID 1914); format: functional, Streptococcus pyogenes M1 GAS;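 note: secreted streptokinase activity via plasminogen activation per viability signal from cell pellet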
T8 sequence (P10520 whole entry): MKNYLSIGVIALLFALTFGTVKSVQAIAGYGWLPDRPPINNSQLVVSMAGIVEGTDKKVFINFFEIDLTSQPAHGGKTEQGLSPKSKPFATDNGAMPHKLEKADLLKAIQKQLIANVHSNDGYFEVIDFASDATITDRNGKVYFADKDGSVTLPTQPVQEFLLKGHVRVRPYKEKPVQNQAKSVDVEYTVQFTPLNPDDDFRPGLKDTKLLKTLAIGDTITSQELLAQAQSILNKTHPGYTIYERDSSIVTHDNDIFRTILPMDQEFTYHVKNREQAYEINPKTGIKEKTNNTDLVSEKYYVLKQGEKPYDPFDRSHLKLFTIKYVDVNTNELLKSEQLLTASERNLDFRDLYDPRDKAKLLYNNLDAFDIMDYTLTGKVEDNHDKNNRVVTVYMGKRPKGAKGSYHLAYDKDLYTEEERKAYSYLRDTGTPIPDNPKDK

[28] = target: T9, Neuropeptide Y receptor type 2 (Homo sapiens, UniProt P49146); experiment: Fluorescence-based cell-based high-throughput dose response assay for agonists of NPY-Y2. [Related pubchem assays: 1703 (Screening assay (CNGC inhibitors).), 1359 (Screening assay (NPY-Y2 potentiators or agonists).), 1304 (Screening assay (NPY-Y1 potentiators or agonists).), 1710 (Screening assay (NPY-Y2 agonists).), 1791 (Summary AID.)]; format: functional
T9 sequence (P49146 whole entry): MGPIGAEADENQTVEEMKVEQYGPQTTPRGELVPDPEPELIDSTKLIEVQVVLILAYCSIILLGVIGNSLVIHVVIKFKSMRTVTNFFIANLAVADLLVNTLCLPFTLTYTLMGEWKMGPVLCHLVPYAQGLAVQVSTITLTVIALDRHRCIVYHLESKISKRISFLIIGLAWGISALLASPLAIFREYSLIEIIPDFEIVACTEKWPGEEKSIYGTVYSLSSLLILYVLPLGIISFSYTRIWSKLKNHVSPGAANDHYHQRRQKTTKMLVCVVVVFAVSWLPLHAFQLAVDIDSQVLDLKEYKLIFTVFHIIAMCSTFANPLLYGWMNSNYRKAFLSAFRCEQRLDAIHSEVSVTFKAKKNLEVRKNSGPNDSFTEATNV

[29] = target: T10, Neuropeptide Y receptor type 1 (Homo sapiens, UniProt P25929); experiment: Fluorescence-based counterscreen for agonists of NPY-Y2: cell-based high-throughput dose response assay for agonists of NPY-Y1.; format: functional
T10 sequence (P25929 whole entry): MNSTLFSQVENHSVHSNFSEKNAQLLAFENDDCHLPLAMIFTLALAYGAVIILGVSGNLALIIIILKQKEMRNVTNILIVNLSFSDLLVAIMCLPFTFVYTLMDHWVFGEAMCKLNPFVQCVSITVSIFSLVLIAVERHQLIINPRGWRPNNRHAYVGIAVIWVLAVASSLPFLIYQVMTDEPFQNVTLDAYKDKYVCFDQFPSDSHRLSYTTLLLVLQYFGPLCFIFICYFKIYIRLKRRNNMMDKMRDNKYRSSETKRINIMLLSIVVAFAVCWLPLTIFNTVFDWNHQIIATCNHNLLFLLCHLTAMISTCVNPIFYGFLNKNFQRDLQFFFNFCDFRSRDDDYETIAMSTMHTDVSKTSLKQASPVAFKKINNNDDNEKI

[30] = target: T7, Polyadenylate-binding protein 1; experiment: PABP1 MLLE–PAM2 binding inhibitor potency, dose response, biochemical, fluorescence polarization, FITC-PAM2 peptide (AID 602259); format: functional; details: read-out: IC50_Mean
[31] = test system: Streptococcus sp. 'group A'; experiment: growth inhibition of control SK(-) GAS strain, dose response, counter-screen for streptokinase expression inhibitor project, luminescence, kanamycin, BacTiterGlo, confirmation (AID 1900); format: functional, organism-based
[32] = test system: HEK293; experiment: Fluorescence-based counterscreen for potentiators or agonists of NPY-Y2: cell-based high-throughput dose response assay to identify inhibitors of cyclic nucleotide gated ion channel (CNGC) activity. In this assay, the parental HEK293 cell line transfected with a cyclic-nucleotide gated ion channel (CNGC)-based cAMP sensor is used to measure inhibition of isoproterenol-induced CNGC activity by test compound.; format: functional; details: Homo sapiens;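 note: stimulus is 1 µM isoproterenol at EC100 plus PDE inhibitor Ro 20-1724 at 25 µM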
[33] = microbe, parasite or virus in culture; format: functional; details: Mycobacterium tuberculosis
[34] = target: T11, Interleukin-8 (Homo sapiens, UniProt P10145); experiment: Dose Response confirmation of uHTS small molecule hits for cystic fibrosis induced NFkb Inhibitors in a PAF-induced IL8 counterscreen.; format: functional; details: read-out: IC50_Mean
[35] = target: T11, Interleukin-8; experiment: Dose Response confirmation of uHTS small molecule hits for cystic fibrosis induced NFkb Inhibitors in a TNFa-induced IL8 counterscreen.; format: functional; details: read-out: IC50_Mean
[36] = target: Paired box protein Pax-8 (Homo sapiens, UniProt Q06710); experiment: inhibitors of PAX8-driven TPO luciferase reporter, dose response, RMG-I cells, cherry-pick (AID 687027); format: functional, cell-based;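 note: luciferase reporter driven by Pax8 target thyroperoxidase promoter measured by SteadyGlo luminescence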

T5 sequence (Q932Y6 whole entry): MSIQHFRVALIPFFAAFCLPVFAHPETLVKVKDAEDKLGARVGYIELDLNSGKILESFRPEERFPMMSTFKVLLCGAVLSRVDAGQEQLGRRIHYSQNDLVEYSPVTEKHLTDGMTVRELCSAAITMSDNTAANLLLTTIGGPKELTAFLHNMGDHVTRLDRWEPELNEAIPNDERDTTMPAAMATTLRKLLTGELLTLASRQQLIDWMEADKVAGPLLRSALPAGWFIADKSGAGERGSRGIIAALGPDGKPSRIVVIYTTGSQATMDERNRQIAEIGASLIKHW
T2 sequence (P63165 whole entry): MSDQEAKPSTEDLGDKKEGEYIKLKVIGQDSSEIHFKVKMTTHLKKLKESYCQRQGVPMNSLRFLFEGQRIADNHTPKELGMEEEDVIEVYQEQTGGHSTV
T1 sequence (Q9P0U3 whole entry, the tested form may be a part): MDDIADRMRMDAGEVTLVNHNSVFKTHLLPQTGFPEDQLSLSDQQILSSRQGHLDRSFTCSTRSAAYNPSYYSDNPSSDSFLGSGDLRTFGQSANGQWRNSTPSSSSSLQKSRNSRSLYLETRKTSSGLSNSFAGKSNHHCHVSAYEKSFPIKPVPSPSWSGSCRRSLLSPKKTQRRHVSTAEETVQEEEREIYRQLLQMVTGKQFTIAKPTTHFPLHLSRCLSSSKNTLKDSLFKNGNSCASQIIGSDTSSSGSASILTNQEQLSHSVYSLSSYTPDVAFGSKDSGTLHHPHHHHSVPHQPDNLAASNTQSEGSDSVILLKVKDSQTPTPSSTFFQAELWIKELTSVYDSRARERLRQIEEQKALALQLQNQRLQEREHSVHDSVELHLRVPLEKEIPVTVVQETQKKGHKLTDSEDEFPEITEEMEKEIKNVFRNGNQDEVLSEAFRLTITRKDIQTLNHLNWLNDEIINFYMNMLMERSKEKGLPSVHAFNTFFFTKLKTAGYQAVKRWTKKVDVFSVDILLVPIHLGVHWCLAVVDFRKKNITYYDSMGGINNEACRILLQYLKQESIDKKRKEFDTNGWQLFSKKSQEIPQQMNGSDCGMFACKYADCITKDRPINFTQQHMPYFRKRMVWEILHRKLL
T7 sequence (P11940 whole entry): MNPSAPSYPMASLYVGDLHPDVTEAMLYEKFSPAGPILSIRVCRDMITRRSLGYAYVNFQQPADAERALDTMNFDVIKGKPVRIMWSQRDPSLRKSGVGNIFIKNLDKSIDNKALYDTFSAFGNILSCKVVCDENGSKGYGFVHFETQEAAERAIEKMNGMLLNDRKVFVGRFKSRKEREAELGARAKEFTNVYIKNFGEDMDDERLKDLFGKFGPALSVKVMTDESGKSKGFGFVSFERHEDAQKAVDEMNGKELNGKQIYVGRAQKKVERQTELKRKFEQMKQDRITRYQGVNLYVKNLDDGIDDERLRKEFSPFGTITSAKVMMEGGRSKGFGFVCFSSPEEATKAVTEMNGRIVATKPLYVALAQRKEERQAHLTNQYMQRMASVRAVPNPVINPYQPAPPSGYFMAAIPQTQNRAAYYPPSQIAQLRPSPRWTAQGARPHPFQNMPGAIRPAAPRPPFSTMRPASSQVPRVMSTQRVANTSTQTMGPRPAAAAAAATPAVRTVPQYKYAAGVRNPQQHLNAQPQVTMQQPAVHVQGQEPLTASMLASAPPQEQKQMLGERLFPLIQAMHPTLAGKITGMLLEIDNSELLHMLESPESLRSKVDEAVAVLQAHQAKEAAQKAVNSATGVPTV
T4 sequence (Q79MP6 whole entry): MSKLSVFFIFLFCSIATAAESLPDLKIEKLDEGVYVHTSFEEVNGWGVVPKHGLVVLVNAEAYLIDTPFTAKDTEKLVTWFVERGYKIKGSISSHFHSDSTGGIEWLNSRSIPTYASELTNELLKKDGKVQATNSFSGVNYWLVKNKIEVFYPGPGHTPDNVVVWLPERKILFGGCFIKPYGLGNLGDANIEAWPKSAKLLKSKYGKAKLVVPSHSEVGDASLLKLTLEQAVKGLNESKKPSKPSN
T11 sequence (P10145 whole entry): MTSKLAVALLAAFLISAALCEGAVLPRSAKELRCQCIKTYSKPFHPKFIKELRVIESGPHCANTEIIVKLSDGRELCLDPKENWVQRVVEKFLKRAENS
Chain of Dual specificity protein phosphatase 3 (P51452 whole entry): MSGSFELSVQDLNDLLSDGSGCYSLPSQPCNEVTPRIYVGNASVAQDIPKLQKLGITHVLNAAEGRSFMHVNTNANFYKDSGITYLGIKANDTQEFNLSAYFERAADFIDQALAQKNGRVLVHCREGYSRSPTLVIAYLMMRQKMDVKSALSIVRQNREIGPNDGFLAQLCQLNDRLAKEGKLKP
Chain of Cytochrome P450 2C19 (P33261 whole entry): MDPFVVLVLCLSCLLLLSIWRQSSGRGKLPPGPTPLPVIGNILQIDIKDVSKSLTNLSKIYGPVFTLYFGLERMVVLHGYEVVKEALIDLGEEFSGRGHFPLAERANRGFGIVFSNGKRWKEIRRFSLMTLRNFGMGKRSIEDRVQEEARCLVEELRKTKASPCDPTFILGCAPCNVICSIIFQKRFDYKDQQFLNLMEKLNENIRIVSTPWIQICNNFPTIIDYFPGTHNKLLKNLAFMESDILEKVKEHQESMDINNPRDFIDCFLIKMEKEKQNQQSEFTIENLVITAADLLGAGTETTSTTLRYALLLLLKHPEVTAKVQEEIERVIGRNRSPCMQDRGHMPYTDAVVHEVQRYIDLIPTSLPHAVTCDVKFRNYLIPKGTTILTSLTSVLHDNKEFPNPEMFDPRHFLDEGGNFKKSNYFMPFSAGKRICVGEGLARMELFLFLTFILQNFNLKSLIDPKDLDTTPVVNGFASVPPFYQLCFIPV
Chain of Tyrosine-protein phosphatase non-receptor type 5 (P54829 whole entry): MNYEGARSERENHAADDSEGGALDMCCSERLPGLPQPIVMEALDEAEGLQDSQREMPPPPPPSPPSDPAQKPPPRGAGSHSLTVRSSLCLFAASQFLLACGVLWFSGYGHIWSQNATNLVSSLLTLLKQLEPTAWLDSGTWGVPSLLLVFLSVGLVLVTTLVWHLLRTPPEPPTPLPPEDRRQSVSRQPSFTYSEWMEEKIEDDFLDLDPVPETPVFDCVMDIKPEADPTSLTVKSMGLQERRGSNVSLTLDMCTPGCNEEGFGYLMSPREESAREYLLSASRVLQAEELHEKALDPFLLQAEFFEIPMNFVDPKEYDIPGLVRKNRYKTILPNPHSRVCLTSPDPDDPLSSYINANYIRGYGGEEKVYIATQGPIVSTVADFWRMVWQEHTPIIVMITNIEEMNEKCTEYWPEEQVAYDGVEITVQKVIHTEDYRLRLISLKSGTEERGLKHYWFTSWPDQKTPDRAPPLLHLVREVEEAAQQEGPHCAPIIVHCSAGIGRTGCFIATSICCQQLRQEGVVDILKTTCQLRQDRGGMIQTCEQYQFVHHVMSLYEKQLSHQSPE
Chain of DNA repair and recombination protein RAD54-like (Q92698 whole entry): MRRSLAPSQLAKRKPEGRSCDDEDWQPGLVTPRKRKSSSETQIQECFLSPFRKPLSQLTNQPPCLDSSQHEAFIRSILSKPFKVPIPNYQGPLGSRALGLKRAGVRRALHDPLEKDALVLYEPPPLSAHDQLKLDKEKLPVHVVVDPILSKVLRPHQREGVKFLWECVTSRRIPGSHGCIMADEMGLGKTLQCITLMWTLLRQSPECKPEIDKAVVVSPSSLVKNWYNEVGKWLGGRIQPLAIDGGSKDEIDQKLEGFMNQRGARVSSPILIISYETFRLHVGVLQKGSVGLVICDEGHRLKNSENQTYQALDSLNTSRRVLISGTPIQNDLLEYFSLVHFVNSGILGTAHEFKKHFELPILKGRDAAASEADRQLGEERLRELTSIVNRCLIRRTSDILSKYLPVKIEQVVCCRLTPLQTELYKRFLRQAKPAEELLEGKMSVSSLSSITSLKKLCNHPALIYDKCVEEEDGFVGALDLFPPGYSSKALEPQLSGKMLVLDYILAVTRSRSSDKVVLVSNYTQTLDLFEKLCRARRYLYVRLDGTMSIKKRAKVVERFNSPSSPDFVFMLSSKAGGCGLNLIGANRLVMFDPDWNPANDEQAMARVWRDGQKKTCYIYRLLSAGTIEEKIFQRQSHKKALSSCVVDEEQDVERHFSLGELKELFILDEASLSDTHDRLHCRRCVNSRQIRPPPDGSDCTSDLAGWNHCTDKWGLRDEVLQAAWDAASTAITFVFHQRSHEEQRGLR
Chain of Beta-lactamase (Salmonella choleraesuis (strain SC-B67), UniProt Q5J463) (Q5J463 whole entry): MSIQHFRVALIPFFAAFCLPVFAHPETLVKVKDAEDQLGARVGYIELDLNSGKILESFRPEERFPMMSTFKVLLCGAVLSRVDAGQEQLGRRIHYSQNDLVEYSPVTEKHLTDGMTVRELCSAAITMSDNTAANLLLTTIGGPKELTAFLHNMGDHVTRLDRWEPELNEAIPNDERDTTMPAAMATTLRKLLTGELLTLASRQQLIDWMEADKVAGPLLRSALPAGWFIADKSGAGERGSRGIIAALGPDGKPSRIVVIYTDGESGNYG
Chain of Cytochrome P450 3A4 (P08684 whole entry): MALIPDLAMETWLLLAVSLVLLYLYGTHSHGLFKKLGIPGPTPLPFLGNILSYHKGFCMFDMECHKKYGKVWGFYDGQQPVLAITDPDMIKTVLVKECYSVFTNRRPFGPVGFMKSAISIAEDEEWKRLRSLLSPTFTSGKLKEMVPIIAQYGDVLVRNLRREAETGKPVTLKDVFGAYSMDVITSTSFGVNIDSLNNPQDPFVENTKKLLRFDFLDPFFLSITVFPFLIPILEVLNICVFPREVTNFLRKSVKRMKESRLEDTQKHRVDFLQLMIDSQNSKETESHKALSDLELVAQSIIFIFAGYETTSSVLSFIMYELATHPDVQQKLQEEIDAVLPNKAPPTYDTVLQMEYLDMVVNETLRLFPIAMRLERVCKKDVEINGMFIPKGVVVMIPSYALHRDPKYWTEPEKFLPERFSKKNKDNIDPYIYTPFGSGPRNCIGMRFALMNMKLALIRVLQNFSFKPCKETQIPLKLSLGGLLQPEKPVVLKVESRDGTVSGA

CCn1c(/C=C/c2cc(Br)ccc2O)nc2ccccc2c1=O
IC50 [1]: 5.9 µM (active) | IC50 [2]: 12.5 µM (active)

COc1ccc(-c2cnc3c(NC(C)=O)cc(-c4cc(F)ccc4OC)cn23)cc1OC
EC50 [3]: > 89.2 µM (inactive)

O=c1cc(N2CCN(c3ccccc3)CC2)[nH]c(=O)n1C1CCCCC1
AC50 [4]: 6.31 µM (inconclusive) | AC50 [5]: 15.8 µM (inconclusive) | IC50 [6]: 0.511 µM (active) | AC50 [7]: 3.16 µM (inconclusive)

O=C1Nc2ccc3sc4ccccc4c3c2C1=O
IC50 [8]: 8.19 µM (active) | IC50 [9]: 3.25 µM (active) | IC50 [10]: 4.35 µM (active) | CC50 [11]: > 50 µM (active) | IC50 [12]: > 66.6 µM (inactive) | IC50 [13]: 15.2 µM (active) | IC50 [14]: 2.49 µM (active)

COc1cccc(-c2nc(N3CCN(Cc4ccccc4)CC3)c3ccccc3n2)c1O
AC50 [15]: 100 µM (inactive)

COc1ccc(C(=O)C2=C(O)C(=O)N(Cc3ccco3)C2c2cc(OC)ccc2OC)cc1 (stereo unspecified)
IC50 [16]: > 59.6 µM (inactive) | IC50 [17]: 5.61 µM (active) | IC50 [18]: 12.8 µM (inactive) | IC50 [19]: > 59.6 µM (inactive) | IC50 [20]: > 59.6 µM (inactive)

N#C/C(=N/Nc1ccc(OC(F)(F)F)cc1)C(N)=S
EC50 [21]: 1.67 µM (active) | IC50 [22]: 7.16 µM (active) | EC50 [23]: > 150 µM (not active) | EC50 [24]: 15 µM (active) | IC50 [25]: 0.631 µM (active) | IC50 [26]: > 66 µM (inactive) | EC50 [27]: > 150 µM (not active) | EC50 [28]: > 35.4 µM (not active) | EC50 [29]: 33.3 µM (not active) | IC50 [30]: > 66 µM (inactive) | EC50 [31]: 44.9 µM (active) | EC50 [32]: > 35.4 µM (not active) | CC50 [33]: 8.05 µM (active)

CCOC(=O)Nc1ccc2c(c1)N(C(=O)CCN(CC)CC)c1ccccc1[S+]2[O-] (stereo unspecified)
IC50 [34]: 1.12 µM (active) | IC50 [35]: 1.01 µM (active) | AC50 [36]: 7.06 µM (active)
